In data set [1] the test system is aldose reductase. To be noted: literature report; cited from earlier work.
Data set [2] has as its target T1, aldose reductase (Bos taurus, UniProt P16116).
T1 construct: preparation of the enzyme from bovine lens; from tissue; host or cells: bovine lens
Put plainly: in vitro aldose reductase inhibition (modified Hayman and Kinoshita procedure; enzyme from bovine lens). Particulars: read-out: % Inhibition At Different Molar Concentrations (in vitro); for inhibition at 10 µM: molar concentration 10^-5; for inhibition at 1 µM: molar concentration 10^-6; for inhibition at 0.1 µM: molar concentration 10^-7. Format: biochemical. On the procedure:
In the present case the procedure of Hayman and Kinoshita is modified in that the final chromatography step is omitted in the preparation of the enzyme from bovine lens. The following results were obtained when the foregoing listed compounds of formula I were evaluated in the above in vitro test.

The nature of data set [3]: hygroscopicity of the salt. Format: physicochemical. To be noted: disodium salt.

As to `O=C1NC(=O)[C@@]2(CCOc3ccc(F)cc32)N1` [sorbinil, (S)-6-Fluoro-2,3-dihydrospiro(4H-1-benzopyran-4,4'-imidazolidine)-2',5'-dione], the “aldose reductase inhibition (in words)” value with aldose reductase [1] is reported as “aldose reductase inhibiting properties”.

As for `O=C(O)Cn1c2cccccc-2cc1=O` [Example 3, 1,2-Dihydro-2-oxocyclohepta[b]pyrrole-1-acetic Acid], at aldose reductase [2], the inhibition at 10 µM came to 80%, the inhibition at 1 µM was 45% and the inhibition at 0.1 µM was found to be 9%.

For the molecule `O=C(O)Cn1c2cccccc-2c(C(=O)O)c1=S` [Example 5, 3-Carboxy-1,2-dihydro-2-thioxocyclohepta[b]pyrrole-1-acetic Acid], at aldose reductase [2], the inhibition at 10 µM turned out to be 93%, the inhibition at 1 µM was determined as 85% and the inhibition at 0.1 µM was 47%.

On to `CC(C)(C)C(=O)OCOC(=O)Cn1c2cccccc-2c(C(=O)OCOC(=O)C(C)(C)C)c1=O` [Example 6, 1,2-Dihydro-3-[(2,2-dimethyl-1-oxopropoxy)methoxycarbonyl]-2-oxo-cyclohepta[b]pyrrole-1-acetic Acid (2,2-Dimethyl-1-oxopropoxy)methyl Ester], for which, at aldose reductase [2], the inhibition at 10 µM came out at 75%, the inhibition at 1 µM is 44% and the inhibition at 0.1 µM was 9%.

As for `CC(=O)c1c2cccccc-2n(CC(=O)O)c1=O` [Example 7, 3-Acetyl-1,2-dihydro-2-oxocyclohepta[b]pyrrole-1-acetic Acid], on aldose reductase [2], the inhibition at 10 µM is 76%, the inhibition at 1 µM stood at 26% and the inhibition at 0.1 µM came to 3%.

`NC(=O)c1c2cccccc-2n(CC(=O)O)c1=O` [Example 13, 3-(Aminocarbonyl)-1,2-dihydro-2-oxocyclohepta[b]pyrrole-1-acetic Acid]: on aldose reductase [2], the inhibition at 10 µM was 73%, the inhibition at 1 µM is 28% and the inhibition at 0.1 µM worked out at 7%.

Regarding `O=C(O)Cn1c2ccc(Cl)ccc-2c(C(=O)O)c1=O` [Example 9, 3-Carboxy-6-chloro-1,2-dihydro-2-oxocyclohepta[b]pyrrole-1-acetic Acid], at aldose reductase [2], the inhibition at 10 µM is 85%, the inhibition at 1 µM was 78% and the inhibition at 0.1 µM was 36%.

For the molecule `CC(=O)c1c2ccc(Cl)ccc-2n(CC(=O)O)c1=O` [Example 11, 3-Acetyl-6-chloro-1,2-dihydro-2-oxocyclohepta[b]pyrrole-1-acetic Acid], at aldose reductase [2], the inhibition at 10 µM was 85%, the inhibition at 1 µM amounted to 52% and the inhibition at 0.1 µM stood at 11%.

In the case of `O=C(O)Cn1c2cccccc-2c(C(=O)O)c1=O` [Example 2, 3-Carboxy-1,2-dihydro-2-oxocyclohepta[b]pyrrole-1-acetic Acid], at aldose reductase [2], the inhibition at 10 µM came out at 88%, the inhibition at 1 µM is 82% and the inhibition at 0.1 µM was found to be 44%.

On to `CCOC(=O)c1c2cccccc-2n(CC(=O)O)c1=O` [Example 4, 3-(Ethoxycarbonyl)-1,2-dihydro-2-oxocyclohepta[b]pyrrole-1-acetic Acid], for which, on aldose reductase [2], the inhibition at 10 µM was 73% and the inhibition at 1 µM was determined as 26%.

As for `CCc1c2cccccc-2n(CC(=O)O)c1=O` [Example 8, 3-Ethyl-1,2-dihydro-2-oxocyclohepta[b]pyrrole-1-acetic Acid], at aldose reductase [2], the inhibition at 10 µM was 60% and the inhibition at 1 µM was found to be 19%.

`N#Cc1c2cccccc-2n(CC(=O)O)c1=O` [Example 12, 3-Cyano-1,2-dihydro-2-oxocyclohepta[b]pyrrole-1-acetic Acid]: on aldose reductase [2], the inhibition at 10 µM was 88%, the inhibition at 1 µM stood at 82% and the inhibition at 0.1 µM stood at 48%.

Turning to `O=C(O)C[n+]1cc(C(=O)O)c2cccccc1-2` [3-Carboxy-1-(carboxymethyl)-cyclohepta[b]pyrrolium Chloride], on aldose reductase [2], the inhibition at 10 µM came out at 80%, the inhibition at 1 µM is 37% and the inhibition at 0.1 µM was 13%.

On to `CN(CC(=O)O)C(=O)c1c2ccc(Cl)ccc-2n(CC(=O)O)c1=O` [Example 15, 6-Chloro-3-[(N-carboxymethyl-N-methyl)amino]carbonyl-1,2-dihydro-2-oxocyclohepta[b]pyrrole-1-acetic Acid], for which the hygroscopicity result in data set [3] is recorded as “hydroscopic”.

Regarding `O=C(O)CN1C(=O)c2cccc3cccc(c23)C1=O` [1,3-Dioxo-1H-benz[de]isoquinoline-2(3H)-acetic acid], the “aldose reductase inhibition (in words)” value in the data set with aldose reductase [1] is “effective inhibitor of aldose reductase”.

On to `CCOC(=O)c1c2ccc(Cl)ccc-2n(CC(=O)O)c1=O` [Example 10, 6-Chloro-3-(ethoxycarbonyl)-1,2-dihydro-2-oxocyclohepta[b]pyrrole-1-acetic Acid], for which, on aldose reductase [2], the inhibition at 10 µM came to 76%, the inhibition at 1 µM worked out at 34% and the inhibition at 0.1 µM is 9%.

The record behind these values is US4337265A, “Cyclohepta[b]pyrrole derivatives” (Ayerst, McKenna & Harrison Inc., priority 1981, dated 1982).
